Assay results reported in US20260200987A1, “PEPTIDE FOR CARTILAGE REGENERATION, AND USES THEREOF” (CAREGEN CO., LTD., priority 2022, published 2026).
Ends that are not written are not given here.

Tests used:
[1] = tested on: human adipose-derived mesenchymal stem cells (AD-MSC); assay: SRB staining, cell morphology changes; assay type: cell-based; conditions: peptide at different concentrations, FIG. 1 and FIG. 2
Method: Additionally, for SRB staining, after suctioning the medium from the plate, 60 μL of 3.7% formalin was added to the 96-well plate to be stained and fixed for 1 minute. After suctioning 3.7% formalin, 70 μL of SRB staining solution (sulforhodamine B sodium salt (sigma, S9012): 0.2 g in 100 mL DDW) was added and stained. The plate was covered with aluminum foil, blocked from light, and incubated overnight at room temperature. After washing with 100 μL of 1% acetic acid using a multi-pipette, it was dried and observed under a microscope.

[2] = tested on: human adipose-derived mesenchymal stem cells (AD-MSC); assay: CCK-8 assay, cytotoxicity; assay type: cell-based; conditions: after 7 days, peptide at different concentrations, FIG. 3 and FIG. 4
Method: Specifically, AD-MSC cells were seeded in 96-well plates at a density of 1.5×10^3 cells/well and cultured in Dulbecco's Modified Eagle's Medium (DMEM) supplemented with 10% FBS for 24 hours. Then, the medium was replaced with DMEM medium supplemented with 5% FBS, and Peptide-1 or Peptide-2 was treated at different concentrations, respectively. Subsequently, the medium was replaced every 3 days and Peptide-1 or Peptide-2 was treated at different concentrations, respectively. To confirm CCK-8 activity, after 7 days, CCK-8 (Dojindo, CCK-8 kit) solution was added at 1/10 volume of the culture medium, and incubated for 2 hours. The culture medium was sampled and CCK-8 activity was confirmed at a wavelength of 450 nm using a microplate reader.

Row | Sequence | change in cell morphology in SRB staining [1] | toxicity toward adipose-derived mesenchymal stem cells (CCK-8 activity) [2]
1 | FCRPRNDFF [Peptide-2, FCRPRNDFF] | did not show any change in cell morphology | did not exhibit toxicity
2 | RIAFLWVRIK [Peptide-1, RIAFLWVRIK] | did not show any change in cell morphology | did not exhibit toxicity
